test system: CC[C@H](C)[C@H](NC(=O)[C@@H](N)Cc1ccc(O)cc1)C(=O)N[C@@H](Cc1ccc(O)cc1)C(=O)NCC(=O)N[C@@H](CO)C(=O)N[C@@H](Cc1ccccc1)C(=O)N[C@@H](CCCCN)C(N)=O; test: Inhibition of c-Src tyrosine kinase against 55 uM YIYGSFK-NH2 substrate; details: Homo sapiens

Row | Compound | Km [µM]
1 | Proto-oncogene tyrosine-protein kinase Src (Homo sapiens) (from UniProt P12931) | 55

molecular target: Tyrosine-protein kinase Lck (Homo sapiens, UniProt P06239); test: Inhibition of p56 Lck kinase against 100 uM cdc2 substrate; details: not given
Sequence (P06239 whole entry): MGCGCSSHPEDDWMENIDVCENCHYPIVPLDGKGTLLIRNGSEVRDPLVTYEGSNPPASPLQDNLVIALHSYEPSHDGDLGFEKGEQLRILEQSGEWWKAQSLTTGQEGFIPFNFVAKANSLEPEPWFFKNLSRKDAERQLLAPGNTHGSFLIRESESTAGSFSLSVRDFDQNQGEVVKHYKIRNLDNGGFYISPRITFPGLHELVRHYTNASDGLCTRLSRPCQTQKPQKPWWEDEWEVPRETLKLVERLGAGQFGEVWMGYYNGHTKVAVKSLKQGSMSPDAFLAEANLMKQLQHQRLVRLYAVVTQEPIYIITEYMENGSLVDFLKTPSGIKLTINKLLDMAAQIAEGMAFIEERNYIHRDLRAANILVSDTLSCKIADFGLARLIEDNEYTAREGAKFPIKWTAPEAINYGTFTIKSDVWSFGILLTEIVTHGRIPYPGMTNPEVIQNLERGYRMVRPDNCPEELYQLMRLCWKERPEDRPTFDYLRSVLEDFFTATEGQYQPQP

Row | IC50 [µM] | Compound
2 | 11 | CC1(C)SSC[C@@H](C(=O)N[C@@H](CCCCN)C(=O)N[C@@H](CCCN=C(N)N)C(N)=O)NC(=O)[C@H](Cc2ccccc2)NC(=O)[C@H](CO)NC(=O)CNC(=O)[C@H](Cc2cc(I)c(O)c(I)c2)NC(=O)[C@@H]1NC(=O)[C@@H](N)Cc1ccc(O)cc1
3 | 470 | C[C@H](c1ccc2ccccc2c1)[C@H]1NC(=O)[C@H](NC(=O)[C@@H](N)Cc2ccc(O)cc2)C(C)(C)SSC[C@@H](C(=O)N[C@@H](CCCCN)C(=O)N[C@@H](CCCNC(=N)N)C(N)=O)NC(=O)[C@H](Cc2ccccc2)NC(=O)[C@H](CO)NC(=O)CNC1=O
4 | 220 | C[C@H](c1ccc2ccccc2c1)[C@@H]1NC(=O)[C@H](NC(=O)[C@@H](N)Cc2ccc(O)cc2)C(C)(C)SSC[C@@H](C(=O)N[C@@H](CCCCN)C(=O)N[C@@H](CCCNC(=N)N)C(N)=O)NC(=O)[C@H](Cc2ccccc2)NC(=O)[C@H](CO)NC(=O)CNC1=O
5 | 11 | CC1(C)SSC[C@@H](C(=O)N[C@@H](CCCCN)C(=O)N[C@@H](CCCNC(=N)N)C(N)=O)NC(=O)[C@H](Cc2ccccc2)NC(=O)[C@H](CO)NC(=O)CNC(=O)[C@H](Cc2ccc(O)c(I)c2)NC(=O)[C@@H]1NC(=O)[C@@H](N)Cc1ccc(O)cc1
6 | 260 | C[C@@H](c1ccc2ccccc2c1)[C@H]1NC(=O)[C@H](NC(=O)[C@@H](N)Cc2ccc(O)cc2)C(C)(C)SSC[C@@H](C(=O)N[C@@H](CCCCN)C(=O)N[C@@H](CCCNC(=N)N)C(N)=O)NC(=O)[C@H](Cc2ccccc2)NC(=O)[C@H](CO)NC(=O)CNC1=O
7 | 260 | C[C@@H](c1ccc2ccccc2c1)[C@@H]1NC(=O)[C@H](NC(=O)[C@@H](N)Cc2ccc(O)cc2)C(C)(C)SSC[C@@H](C(=O)N[C@@H](CCCCN)C(=O)N[C@@H](CCCNC(=N)N)C(N)=O)NC(=O)[C@H](Cc2ccccc2)NC(=O)[C@H](CO)NC(=O)CNC1=O

molecular target: Tyrosine-protein kinase Lyn (Homo sapiens, UniProt P07948); test: Inhibition of Lyn kinase against 100 uM cdc2 substrate; details: not given
Sequence (P07948 whole entry): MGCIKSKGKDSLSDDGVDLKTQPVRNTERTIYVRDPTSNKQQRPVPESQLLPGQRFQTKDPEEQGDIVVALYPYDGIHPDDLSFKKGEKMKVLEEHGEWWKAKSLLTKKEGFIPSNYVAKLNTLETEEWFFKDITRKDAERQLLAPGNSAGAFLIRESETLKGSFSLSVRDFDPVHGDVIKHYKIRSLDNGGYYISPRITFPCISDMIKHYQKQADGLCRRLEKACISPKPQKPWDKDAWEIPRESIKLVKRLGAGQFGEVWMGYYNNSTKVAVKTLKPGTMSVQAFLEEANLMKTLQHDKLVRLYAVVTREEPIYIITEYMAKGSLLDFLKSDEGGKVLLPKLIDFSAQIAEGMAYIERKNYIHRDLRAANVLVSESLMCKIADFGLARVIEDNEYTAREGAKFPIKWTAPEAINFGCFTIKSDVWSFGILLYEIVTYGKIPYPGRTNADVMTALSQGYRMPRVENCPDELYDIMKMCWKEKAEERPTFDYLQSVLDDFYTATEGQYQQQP

Row | IC50 [µM] | Compound
8 | > 800 | CC1(C)SSC[C@@H](C(=O)N[C@@H](CCCCN)C(=O)N[C@@H](CCCN=C(N)N)C(N)=O)NC(=O)[C@H](Cc2ccccc2)NC(=O)[C@H](CO)NC(=O)CNC(=O)[C@H](Cc2cc(I)c(O)c(I)c2)NC(=O)[C@@H]1NC(=O)[C@@H](N)Cc1ccc(O)cc1
9 | > 800 | CC1(C)SSC[C@@H](C(=O)N[C@@H](CCCCN)C(=O)N[C@@H](CCCNC(=N)N)C(N)=O)NC(=O)[C@H](Cc2ccccc2)NC(=O)[C@H](CO)NC(=O)CNC(=O)[C@H](Cc2ccc(O)c(I)c2)NC(=O)[C@@H]1NC(=O)[C@@H](N)Cc1ccc(O)cc1

molecular target: Proto-oncogene tyrosine-protein kinase Src (Homo sapiens, UniProt P12931); test: Inhibition of c-Src tyrosine kinase.; details: not given

Row | IC50 [µM] | Compound
10 | 11 | CC(=O)N[C@@H]1C(=O)N[C@@H](Cc2ccc(O)cc2)C(=O)NCC(=O)N[C@@H](CO)C(=O)N[C@@H](Cc2ccccc2)C(=O)N[C@H](C(=O)N[C@@H](CCCCN)C(=O)N[C@@H](CCCN=C(N)N)C(N)=O)CSSC1(C)C
11 | 14.4 | CC1(C)SSC[C@@H](C(=O)N[C@@H](CCCCN)C(=O)N[C@@H](CCCCN)C(N)=O)NC(=O)[C@H](Cc2ccccc2)NC(=O)[C@H](CO)NC(=O)CNC(=O)[C@H](Cc2ccc(O)cc2)NC(=O)[C@H]1N
12 | 26 | CC(=O)N[C@@H](Cc1ccc(O)cc1)C(=O)N[C@@H]1C(=O)N[C@@H](Cc2ccc(O)cc2)C(=O)NCC(=O)N[C@@H](CO)C(=O)N[C@@H](Cc2ccccc2)C(=O)N[C@H](C(=O)N[C@@H](CCCCN)C(=O)N[C@@H](CCCCN)C(N)=O)CSSC1(C)C
13 | 5.3 | CC(C)(S)[C@H](NC(=O)[C@@H](N)Cc1ccc(O)cc1)C(=O)N[C@@H](Cc1ccc(O)cc1)C(=O)NCC(=O)N[C@@H](CO)C(=O)N[C@@H](Cc1ccccc1)C(=O)N[C@@H](CS)C(=O)N[C@@H](CCCCN)C(=O)N[C@@H](CCCCN)C(N)=O
14 | 20 | CC(=O)N[C@@H]1C(=O)N[C@@H](Cc2ccc(O)cc2)C(=O)NCC(=O)N[C@@H](CO)C(=O)N[C@@H](Cc2ccccc2)C(=O)N[C@H](C(=O)N[C@@H](CCCCN)C(=O)N[C@@H](CCCCN)C(N)=O)CSSC1(C)C
15 | 1.2 | CC1(C)SSC[C@@H](C(=O)N[C@@H](CCCCN)C(=O)N[C@@H](CCCNC(=N)N)C(N)=O)NC(=O)[C@H](Cc2ccccc2)NC(=O)[C@H](CO)NC(=O)CNC(=O)[C@H](Cc2ccc(O)cc2)NC(=O)[C@H]1NC(=O)[C@@H](N)Cc1ccc(O)cc1
16 | 2.7 | CC[C@H](C)[C@@H]1NC(=O)[C@@H](N)CSSC[C@@H](C(=O)N[C@@H](CCCCN)C(=O)N[C@@H](CCCCN)C(=O)O)NC(=O)[C@H](Cc2ccccc2)NC(=O)[C@H](CO)NC(=O)CNC(=O)[C@H](Cc2ccc(O)cc2)NC1=O
17 | 2.7 | CC(C)(S)[C@H](NC(=O)[C@@H](N)Cc1ccc(O)cc1)C(=O)N[C@@H](Cc1ccc2ccccc2c1)C(=O)NCC(=O)N[C@@H](CO)C(=O)N[C@@H](Cc1ccccc1)C(=O)N[C@@H](CS)C(=O)N[C@@H](CCCCN)C(=O)N[C@@H](CCCCN)C(N)=O
18 | 18 | C[C@H]1NC(=O)[C@H](Cc2ccc(O)cc2)NC(=O)[C@@H](NC(=O)[C@@H](N)Cc2ccc(O)cc2)C(C)(C)SSC[C@@H](C(=O)N[C@@H](CCCCN)C(=O)N[C@@H](CCCCN)C(N)=O)NC(=O)[C@H](Cc2ccccc2)NC(=O)[C@H](CO)NC1=O
19 | 6.5 | CC(=O)N[C@@H](Cc1ccc(O)cc1)C(=O)N[C@@H]1C(=O)N[C@@H](Cc2ccc(O)cc2)C(=O)NCC(=O)N[C@@H](CO)C(=O)N[C@@H](Cc2ccccc2)C(=O)N[C@H](C(=O)N[C@@H](CCCCN)C(=O)N[C@@H](CCCN=C(N)N)C(N)=O)CSSC1(C)C
20 | 6.9 | CC[C@H](C)[C@H](NC(=O)[C@@H](N)CS)C(=O)N[C@@H](Cc1ccc(O)cc1)C(=O)NCC(=O)N[C@@H](CO)C(=O)N[C@@H](Cc1ccccc1)C(=O)N[C@@H](CS)C(=O)N[C@@H](CCCCN)C(=O)N[C@@H](CCCCN)C(N)=O
21 | 20 | CC1(C)SSC[C@@H](C(=O)N[C@@H](CCCCN)C(=O)N[C@@H](CCCN=C(N)N)C(N)=O)NC(=O)[C@H](Cc2ccccc2)NC(=O)[C@H](CO)NC(=O)CNC(=O)[C@H](Cc2ccc(O)cc2)NC(=O)[C@H]1N

Row | Compound | IC50 [µM]
22 | CC1(C)SSC[C@@H](C(=O)N[C@@H](CCCNC(=N)N)C(N)=O)NC(=O)[C@H](Cc2ccccc2)NC(=O)[C@H](CO)NC(=O)CNC(=O)[C@H](Cc2ccc(O)cc2)NC(=O)[C@H]1NC(=O)[C@@H](N)Cc1ccc(O)cc1 | 4.5
23 | CC1(C)SSC[C@@H](C(=O)N[C@@H](CCCCN)C(N)=O)NC(=O)[C@H](Cc2ccccc2)NC(=O)[C@H](CO)NC(=O)CNC(=O)[C@H](Cc2ccc(O)cc2)NC(=O)[C@H]1NC(=O)[C@@H](N)Cc1ccc(O)cc1 | 6.7
24 | CC1(C)SSC[C@@H](C(=O)N[C@@H](CCCNC(=N)N)C(N)=O)NC(=O)[C@H](Cc2ccccc2)NC(=O)[C@H](CO)NC(=O)CNC(=O)[C@H](Cc2ccc3ccccc3c2)NC(=O)[C@@H]1NC(=O)[C@@H](N)Cc1ccc(O)cc1 | 3.3
